Assay results as given in patent US10168342B2, “Lipid probes and uses thereof” (THE SCRIPPS RESEARCH INSTITUTE, priority 2015, dated 2019).
Where two headings read alike, the source gives them in different places.

How the values were obtained:
[1] = molecular target: T1, AEA-DA lipid probe targets in Neuro2a cells (Mus musculus, UniProt O35887)
T1 sequence (O35887 20-315): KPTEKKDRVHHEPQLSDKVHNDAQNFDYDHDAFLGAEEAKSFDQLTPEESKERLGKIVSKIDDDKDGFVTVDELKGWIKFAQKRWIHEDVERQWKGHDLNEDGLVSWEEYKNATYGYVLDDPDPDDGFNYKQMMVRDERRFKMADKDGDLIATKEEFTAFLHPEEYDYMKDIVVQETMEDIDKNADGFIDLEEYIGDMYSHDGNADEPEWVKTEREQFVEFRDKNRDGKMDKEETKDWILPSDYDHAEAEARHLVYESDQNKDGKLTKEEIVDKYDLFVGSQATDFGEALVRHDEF

[2] = molecular target: T2, AEA-DA lipid probe targets in Neuro2a cells (Mus musculus, UniProt Q61425)
T2 sequence (Q61425 13-314): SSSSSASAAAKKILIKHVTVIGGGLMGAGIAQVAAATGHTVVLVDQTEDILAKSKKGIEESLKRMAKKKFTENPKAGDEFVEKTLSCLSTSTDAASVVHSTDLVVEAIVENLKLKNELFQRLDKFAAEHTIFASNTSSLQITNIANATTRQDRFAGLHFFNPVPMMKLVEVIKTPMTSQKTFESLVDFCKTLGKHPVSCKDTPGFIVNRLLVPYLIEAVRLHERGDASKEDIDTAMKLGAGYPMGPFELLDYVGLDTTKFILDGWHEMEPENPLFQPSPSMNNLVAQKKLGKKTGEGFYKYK

[3] = molecular target: T3, AEA-DA lipid probe targets in Neuro2a cells (Mus musculus, UniProt Q61595)
T3 sequence (Q61595 1-1327): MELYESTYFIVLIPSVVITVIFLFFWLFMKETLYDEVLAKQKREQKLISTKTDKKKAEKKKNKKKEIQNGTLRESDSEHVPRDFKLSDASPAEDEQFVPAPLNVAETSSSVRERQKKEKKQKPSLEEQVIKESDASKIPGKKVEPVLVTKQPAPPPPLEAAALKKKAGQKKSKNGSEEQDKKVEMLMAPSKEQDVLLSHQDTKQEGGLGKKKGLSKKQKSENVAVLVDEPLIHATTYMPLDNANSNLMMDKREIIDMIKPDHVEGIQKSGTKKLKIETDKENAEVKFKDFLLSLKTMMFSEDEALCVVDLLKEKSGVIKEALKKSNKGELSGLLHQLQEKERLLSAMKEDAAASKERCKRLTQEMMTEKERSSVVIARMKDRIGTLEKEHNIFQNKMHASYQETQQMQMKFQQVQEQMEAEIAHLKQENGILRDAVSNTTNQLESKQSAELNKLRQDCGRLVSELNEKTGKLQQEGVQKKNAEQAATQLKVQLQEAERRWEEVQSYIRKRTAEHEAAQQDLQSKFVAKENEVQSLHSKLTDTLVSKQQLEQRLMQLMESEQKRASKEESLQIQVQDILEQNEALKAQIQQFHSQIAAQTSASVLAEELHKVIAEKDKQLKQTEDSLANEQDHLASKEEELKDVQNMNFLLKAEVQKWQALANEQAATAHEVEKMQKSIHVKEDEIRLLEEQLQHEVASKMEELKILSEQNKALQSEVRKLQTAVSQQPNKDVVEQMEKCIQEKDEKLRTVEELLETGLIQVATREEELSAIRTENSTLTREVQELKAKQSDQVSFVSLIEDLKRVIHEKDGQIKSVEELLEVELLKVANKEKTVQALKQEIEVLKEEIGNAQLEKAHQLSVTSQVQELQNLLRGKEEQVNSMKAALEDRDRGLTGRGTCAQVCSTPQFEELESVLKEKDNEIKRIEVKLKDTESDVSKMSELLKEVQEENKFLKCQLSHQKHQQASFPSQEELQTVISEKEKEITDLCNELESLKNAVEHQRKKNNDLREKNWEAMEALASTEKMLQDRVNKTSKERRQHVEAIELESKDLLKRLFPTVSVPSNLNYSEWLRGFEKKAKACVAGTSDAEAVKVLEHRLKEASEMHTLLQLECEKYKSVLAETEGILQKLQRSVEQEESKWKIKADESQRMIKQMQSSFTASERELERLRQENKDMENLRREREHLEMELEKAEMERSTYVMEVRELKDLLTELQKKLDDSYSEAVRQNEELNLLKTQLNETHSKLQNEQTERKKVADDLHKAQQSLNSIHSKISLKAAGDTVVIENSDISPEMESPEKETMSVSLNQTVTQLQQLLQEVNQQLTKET

[4] = molecular target: T4, AEA-DA lipid probe targets in Neuro2a cells (Mus musculus, UniProt Q8BXN9)
T4 sequence (Q8BXN9 22-555): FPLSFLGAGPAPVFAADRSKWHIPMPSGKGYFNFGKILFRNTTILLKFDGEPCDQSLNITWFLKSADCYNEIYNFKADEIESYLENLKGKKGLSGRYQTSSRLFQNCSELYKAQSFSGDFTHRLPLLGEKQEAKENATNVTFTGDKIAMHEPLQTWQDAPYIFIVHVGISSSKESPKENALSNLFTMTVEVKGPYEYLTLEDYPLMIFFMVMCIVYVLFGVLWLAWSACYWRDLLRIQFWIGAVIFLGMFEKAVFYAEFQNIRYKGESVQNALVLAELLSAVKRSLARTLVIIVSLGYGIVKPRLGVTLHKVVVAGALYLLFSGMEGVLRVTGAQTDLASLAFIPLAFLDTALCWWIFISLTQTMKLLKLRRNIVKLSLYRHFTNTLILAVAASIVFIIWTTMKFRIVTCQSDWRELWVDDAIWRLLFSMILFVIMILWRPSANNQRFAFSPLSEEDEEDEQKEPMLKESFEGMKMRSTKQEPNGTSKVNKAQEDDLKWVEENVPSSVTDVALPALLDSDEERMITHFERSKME

[5] = molecular target: AEA-DA lipid probe targets in Neuro2a cells (Mus musculus, UniProt Q9DBG6)
AEA-DA lipid probe targets in Neuro2a cells (Mus musculus, UniProt Q9DBG6), sequence (Q9DBG6 23-631): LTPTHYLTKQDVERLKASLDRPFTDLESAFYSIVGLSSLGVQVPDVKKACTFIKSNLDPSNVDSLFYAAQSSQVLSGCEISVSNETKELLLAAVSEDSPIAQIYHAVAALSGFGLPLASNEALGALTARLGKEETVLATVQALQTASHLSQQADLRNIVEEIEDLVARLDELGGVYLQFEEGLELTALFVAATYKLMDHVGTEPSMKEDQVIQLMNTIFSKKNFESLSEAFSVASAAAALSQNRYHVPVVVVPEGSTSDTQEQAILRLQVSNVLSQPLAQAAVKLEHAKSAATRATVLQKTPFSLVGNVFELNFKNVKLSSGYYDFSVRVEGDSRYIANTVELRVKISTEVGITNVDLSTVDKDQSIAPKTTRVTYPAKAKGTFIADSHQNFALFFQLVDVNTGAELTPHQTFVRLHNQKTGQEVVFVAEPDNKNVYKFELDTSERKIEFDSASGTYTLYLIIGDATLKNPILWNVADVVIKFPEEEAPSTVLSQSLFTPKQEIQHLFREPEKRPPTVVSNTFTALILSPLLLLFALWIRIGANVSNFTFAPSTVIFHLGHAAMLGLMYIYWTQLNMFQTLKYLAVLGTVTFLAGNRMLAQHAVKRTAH

Row | SMILES | SILAC ratio, Calu ([1]; competitor 25 μM) | SILAC ratio Hadh ([2]; competitor 25 μM) | SILAC ratio, Ktn1 ([3]; competitor 25 μM) | SILAC ratio, Tmem87a ([4]; competitor 25 μM) | SILAC ratio Rpn2 ([5]; competitor 25 μM) | further results
1 | CCCCC/C=C\C/C=C\C/C=C\C/C=C\CCCC(=O)NCCO [AEA, anandamide, reference compound] | – | – | – | – | – | SILAC ratio, Calu ([1]; competitor 200 μM): 1.0; SILAC ratio Hadh ([2]; competitor 200 μM): 1.2; SILAC ratio, Ktn1 ([3]; competitor 200 μM): 1.4; SILAC ratio, Tmem87a ([4]; competitor 200 μM): 1.8; SILAC ratio Rpn2 ([5]; competitor 200 μM): 1.3
2 | O=C(/C=C/c1cccnc1)NCCCCC1CCN(C(=O)c2ccccc2)CC1 [FK-866, reference compound] | 1.0 | 1.2 | 1.2 | 1.1 | 1.1 | –
3 | CN1CCN(C(=O)c2c(-c3ccccc3)c3cc([N+](=O)[O-])ccc3n2C)CC1 [KML110, (1-Methyl-5-nitro-3-phenyl-1H-indol-2-yl)(4-methylpiperazin-1-yl)methanone] | 1.1 | 1.2 | – | 1.8 | 1.2 | –
4 | CN1CCN(C(=O)c2[nH]c3ccc([N+](=O)[O-])cc3c2-c2ccccc2)CC1 [MJN228, (4-Methylpiperazin-1-yl)(5-nitro-3-phenyl-1H-indol-2-yl)methanone] | 1.5 | 1.3 | 1.4 | 1.9 | 1.3 | SILAC ratio, Calu ([1]; competitor 10 μM): 1.1; SILAC ratio, Calu ([1]; competitor 100 μM): 1.8; SILAC ratio Hadh ([2]; competitor 10 μM): 1.3; SILAC ratio Hadh ([2]; competitor 50 μM): 1.1; SILAC ratio Hadh ([2]; competitor 100 μM): 1.3; SILAC ratio, Ktn1 ([3]; competitor 10 μM): 1.0; SILAC ratio, Ktn1 ([3]; competitor 100 μM): 1.2; SILAC ratio, Tmem87a ([4]; competitor 10 μM): 1.3; SILAC ratio, Tmem87a ([4]; competitor 50 μM): 1.6; SILAC ratio, Tmem87a ([4]; competitor 100 μM): 2.7; SILAC ratio Rpn2 ([5]; competitor 10 μM): 1.2; SILAC ratio Rpn2 ([5]; competitor 50 μM): 1.4; SILAC ratio Rpn2 ([5]; competitor 100 μM): 1.7
5 | C=CCN(C)CCCCCCOc1ccc(C(=O)c2ccc(Br)cc2)c(F)c1 [Ro 48-8071, reference compound] | 0.9 | 0.8 | 0.8 | 2.3 | 1.0 | –
